Consider 1 compound from ChEMBL document CHEMBL2057187, “AM-8553: a novel MDM2 inhibitor with a promising outlook for potential clinical development” (J Med Chem, 2012).

Molecules are shown by their SMILES.

By bioavailability is commonly meant dose-corrected exposure relative to a reference, in per cent. A lower bioavailability goes with little systemic uptake.

The subject of one data set is SJSA-1. Nature of the data set: Antitumor activity against human SJSA1 cells xenografted in mouse assessed as tumor regression at 200 mg/kg, qd. It is filed as functional.
Data set [1] in a line: Oral bioavailability in rat. Particulars: in vivo. It is filed as ADME, organism-based.
Data set [2] is described as follows: Oral bioavailability in mouse. It is filed as ADME, organism-based. Particulars: in vivo.

Regarding `CC[C@@H]([C@H](C)O)N1C(=O)[C@@](C)(CC(=O)O)C[C@H](c2cccc(Cl)c2)[C@H]1c1ccc(Cl)cc1`, the Activity with SJSA-1 is listed as 27%. Moreover, the bioavailability was 100% in data set [1] and 12% in data set [2].
